This assay concerns the target CREB-binding protein (Homo sapiens, UniProt Q92793). Nature of the assay: In Vitro Enzyme Inhibition Assay-CREBBP Inhibition: Determination of the IC50 for the CREBBP inhibitors disclosed herein was performed as follows: CREBBP was cloned and expressed in E. Coli as His-tag protein and purified by Nickel affinity and gel-filtration chromatography. The protein was further characterized as a single band with the correct molecular weight by SDS-PAGE. CREBBP binding and inhibition was assessed by monitoring the interaction of biotinylated H4-tetraacetyl peptide (AnaSpec, H4K5/8/12/16(Ac), biotin-labeled) with the target using the AlphaScreen technology (Perkin Elmer). In a 384-well ProxiPlate CREBBP (50 nM final) was combined with peptide (20 nM final) in 50 mM HEPES (pH 7.3), 10 mM NaCl, 0.25 mM TCEP, 0.1% (w/v) BSA, and 0.005% (w/v) Brij-35 either in the presence of DMSO (final 0.4% DMSO) or compound dilution series in DMSO. After 20-minute incubation at room temperature, Alpha streptavidin donor beads and Nickel Chelate acceptor beads were added to a final concentration of 5 μg/mL. After two hours of equilibration, plates were read on an Envision instrument and the IC50 was calculated using a four parameter non-linear curve fit.The ability of the compounds disclosed herein to inhibit CBP activity was quantified and the respective IC50 value was determined.
Chain of CREB-binding protein (Q92793 whole entry): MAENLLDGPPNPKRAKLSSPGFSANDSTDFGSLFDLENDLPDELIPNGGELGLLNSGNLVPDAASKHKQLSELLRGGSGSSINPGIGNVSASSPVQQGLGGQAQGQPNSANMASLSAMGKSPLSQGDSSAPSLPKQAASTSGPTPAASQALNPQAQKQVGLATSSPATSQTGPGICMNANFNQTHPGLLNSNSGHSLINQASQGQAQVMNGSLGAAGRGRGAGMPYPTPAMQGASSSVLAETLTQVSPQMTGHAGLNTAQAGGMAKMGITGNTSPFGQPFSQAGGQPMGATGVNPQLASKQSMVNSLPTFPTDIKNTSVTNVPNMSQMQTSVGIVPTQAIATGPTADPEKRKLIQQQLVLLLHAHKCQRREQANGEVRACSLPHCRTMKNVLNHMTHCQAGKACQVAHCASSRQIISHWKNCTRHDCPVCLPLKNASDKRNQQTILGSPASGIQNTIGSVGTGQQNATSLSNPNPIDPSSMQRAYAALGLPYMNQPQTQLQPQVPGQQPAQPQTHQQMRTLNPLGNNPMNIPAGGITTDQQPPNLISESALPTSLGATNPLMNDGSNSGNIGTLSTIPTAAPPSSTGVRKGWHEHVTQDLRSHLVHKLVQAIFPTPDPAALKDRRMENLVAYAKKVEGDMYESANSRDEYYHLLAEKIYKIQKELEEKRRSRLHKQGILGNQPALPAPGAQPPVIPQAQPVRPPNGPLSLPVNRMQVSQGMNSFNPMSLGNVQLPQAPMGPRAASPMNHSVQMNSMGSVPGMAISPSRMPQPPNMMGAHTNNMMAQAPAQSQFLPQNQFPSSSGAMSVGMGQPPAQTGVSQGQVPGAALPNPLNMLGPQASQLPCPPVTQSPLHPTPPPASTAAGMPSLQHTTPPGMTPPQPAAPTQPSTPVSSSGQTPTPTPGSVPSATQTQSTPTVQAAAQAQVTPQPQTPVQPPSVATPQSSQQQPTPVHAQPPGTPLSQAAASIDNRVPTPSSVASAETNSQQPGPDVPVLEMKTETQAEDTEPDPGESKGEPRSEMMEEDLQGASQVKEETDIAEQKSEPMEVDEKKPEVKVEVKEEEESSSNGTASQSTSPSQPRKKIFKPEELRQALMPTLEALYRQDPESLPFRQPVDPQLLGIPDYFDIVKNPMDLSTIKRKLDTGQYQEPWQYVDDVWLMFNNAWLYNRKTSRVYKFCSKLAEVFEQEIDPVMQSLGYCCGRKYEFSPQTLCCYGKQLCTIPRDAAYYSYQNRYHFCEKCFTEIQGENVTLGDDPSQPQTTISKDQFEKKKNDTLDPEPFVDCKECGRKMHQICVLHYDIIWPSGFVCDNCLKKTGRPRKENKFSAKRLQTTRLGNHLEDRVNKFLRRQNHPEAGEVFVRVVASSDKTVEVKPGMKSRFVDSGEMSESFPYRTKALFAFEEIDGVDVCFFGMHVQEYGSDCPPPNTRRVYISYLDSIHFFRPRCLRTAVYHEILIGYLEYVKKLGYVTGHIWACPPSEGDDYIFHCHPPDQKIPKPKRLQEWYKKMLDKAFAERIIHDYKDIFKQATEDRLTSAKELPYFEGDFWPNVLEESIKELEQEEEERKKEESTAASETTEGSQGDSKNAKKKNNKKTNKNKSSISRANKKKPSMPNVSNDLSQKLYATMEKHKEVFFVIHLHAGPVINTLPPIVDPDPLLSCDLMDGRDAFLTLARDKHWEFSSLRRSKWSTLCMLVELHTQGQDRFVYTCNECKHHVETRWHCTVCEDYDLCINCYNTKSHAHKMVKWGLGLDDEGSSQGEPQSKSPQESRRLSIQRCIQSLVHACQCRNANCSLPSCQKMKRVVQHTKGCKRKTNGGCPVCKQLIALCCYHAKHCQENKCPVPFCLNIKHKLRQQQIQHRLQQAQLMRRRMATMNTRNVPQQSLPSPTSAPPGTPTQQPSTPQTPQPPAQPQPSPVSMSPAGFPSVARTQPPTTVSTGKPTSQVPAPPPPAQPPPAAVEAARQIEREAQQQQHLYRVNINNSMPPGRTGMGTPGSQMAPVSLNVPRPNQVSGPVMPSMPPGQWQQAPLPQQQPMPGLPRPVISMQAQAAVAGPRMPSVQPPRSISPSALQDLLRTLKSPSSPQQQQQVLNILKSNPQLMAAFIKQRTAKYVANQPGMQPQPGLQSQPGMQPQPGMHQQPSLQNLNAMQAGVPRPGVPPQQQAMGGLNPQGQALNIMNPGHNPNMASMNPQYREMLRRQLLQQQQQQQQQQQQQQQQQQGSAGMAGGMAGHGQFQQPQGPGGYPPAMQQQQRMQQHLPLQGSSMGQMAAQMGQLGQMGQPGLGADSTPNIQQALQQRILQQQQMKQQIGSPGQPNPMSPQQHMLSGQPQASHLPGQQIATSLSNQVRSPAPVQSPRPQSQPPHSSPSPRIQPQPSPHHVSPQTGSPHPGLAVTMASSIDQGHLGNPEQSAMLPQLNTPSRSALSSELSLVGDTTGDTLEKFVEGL
For orientation: IC50 means the concentration needed to halve the response being measured. Regarding `Cc1cccc(Cl)c1Oc1nc(NS(=O)(=O)C(C)C)cc(-c2cc(Cl)c(=O)n(C)c2)n1`, the half-inhibitory concentration (IC50) is < 500 nM. For `Cc1cccc(F)c1Oc1nc(NS(=O)(=O)CC2CC2)cc(-c2ccc(=O)n(C)c2)n1` the value was < 500 nM; for `CCNc1cc(-c2cc(C)c(=O)n(C)c2)nc(Oc2ccc(F)cc2F)n1`, < 500 nM.

In the case of `Cc1cccc(F)c1Oc1nc(NS(=O)(=O)CCC(F)(F)F)cc(-c2ccc(=O)n(C)c2)n1`, the IC50 was < 500 nM.

In the case of `Cc1cccc(F)c1Oc1nc(NS(=O)(=O)CCC2CC2)cc(-c2ccc(=O)n(C)c2)n1`, the IC50 is < 500 nM. To `CCCCS(=O)(=O)Nc1cc(-c2cc(Cl)c(=O)n(C)c2)nc(Oc2c(C)cccc2Cl)n1` belongs < 500 nM; to `CCCCS(=O)(=O)Nc1nc(Oc2c(C)cccc2C)nc(-c2cc(C)c(=O)n(C)c2)n1`, < 500 nM.

(Values after ChEMBL document CHEMBL5726465, “Therapeutic compounds” (2019).)
